From PMC9695599, “N-Terminally Lipidated Sialorphin Analogs—Synthesis, Molecular Modeling, In Vitro Effect on Enkephalins Degradation by NEP and Treatment of Intestinal Inflammation in Mice” (International Journal of Molecular Sciences, 2022)
Residues, ends and D or L forms follow the SMILES beside them.

Legend:
[1] = biological target: neutral endopeptidase (NEP) (Homo sapiens, UniProt P08473); assay: Degradation of Met-enkephalin by NEP alone and in the presence of inhibitors; conditions: for 1000 × k, degradation rate of Met-enkephalin incubated with NEP in the presence of inhibitor / t1/2, half-life of Met-enkephalin incubated with NEP in the presence of inhibitor: Met-enkephalin 0.0413 mM, inhibitor 0.156 mM, NEP 5.687 nM, Tris–HCl 50 mM pH 7.4, 37 °C, 0, 30, 60, 90, 120 min, RP-HPLC, mean ± SEM, triplicates
Chain of neutral endopeptidase (NEP) (P08473 whole entry, species assumed): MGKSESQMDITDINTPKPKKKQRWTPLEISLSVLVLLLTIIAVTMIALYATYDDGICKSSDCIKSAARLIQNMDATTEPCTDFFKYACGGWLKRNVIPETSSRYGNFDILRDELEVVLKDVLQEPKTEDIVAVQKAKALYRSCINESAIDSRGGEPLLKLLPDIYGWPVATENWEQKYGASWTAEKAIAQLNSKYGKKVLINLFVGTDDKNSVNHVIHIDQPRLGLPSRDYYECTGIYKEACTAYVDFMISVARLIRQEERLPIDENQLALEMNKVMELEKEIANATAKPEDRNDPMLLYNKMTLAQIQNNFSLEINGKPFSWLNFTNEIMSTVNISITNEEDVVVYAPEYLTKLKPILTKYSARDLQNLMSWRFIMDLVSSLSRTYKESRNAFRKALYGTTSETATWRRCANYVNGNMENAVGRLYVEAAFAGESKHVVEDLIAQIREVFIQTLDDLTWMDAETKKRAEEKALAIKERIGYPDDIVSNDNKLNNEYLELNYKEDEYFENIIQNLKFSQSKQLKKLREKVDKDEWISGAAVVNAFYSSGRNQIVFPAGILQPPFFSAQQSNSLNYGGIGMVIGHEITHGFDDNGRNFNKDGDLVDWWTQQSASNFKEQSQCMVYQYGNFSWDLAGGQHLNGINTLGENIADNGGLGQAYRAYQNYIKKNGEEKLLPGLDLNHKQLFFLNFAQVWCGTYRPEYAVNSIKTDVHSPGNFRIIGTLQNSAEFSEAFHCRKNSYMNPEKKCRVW
Procedure: Determination of Met-enkephalin degradation rates was performed, as described previously. Purified enzyme NEP was purchased from Merck (Warsaw, Poland). Solutions of Met-enkephalin, NEP, and inhibitors were prepared by dissolving them in a Tris–HCl buffer (50 mM, pH 7.4). In investigated samples, the concentrations of Met-enkephalin, inhibitors, and NEP were, respectively, 0.0413 mM, 0.156 mM, and 5.687 nM. The samples consisting of NEP, Met-enkephalin, and the inhibitor were incubated over 0, 30, 60, 90, and 120 min at 37 °C in a final volume of 300 μL. The reaction was stopped with a 1 M aqueous HCl solution. In the next steps, the samples were centrifuged and the supernatants were filtered and analyzed by RP-HPLC. All measurements were performed in triplicates.

[2] = test system: DSS-induced colitis in mice; assay: DSS-induced mouse model of colitis; format: in vivo, mouse (male BALB/C); conditions: for Effect on microscopic damage score / colon architecture (in words): DSS-induced colitis, peptide 1 mg/kg i.p. twice daily day 3-6, hematoxylin-eosin stained distal colon sections, day 7
Procedure: Male BALB/C mice obtained from University of Lodz, Poland, weighing 22–25 g (6–8 weeks of age), were used. The mice were kept at a constant temperature (22–23 °C) and maintained under a 12 h light/dark cycle with constant access to laboratory chow and tap water. All animal protocols were approved by the Medical University of Lodz Animal Care Committee (Protocol 2/ŁB 123/2019 and 17/ŁB 132/2019) and complied with Directive 2010/63/EU of the European Parliament and of the Council of 22 September 2010. All efforts were made to minimize animal suffering and to reduce the number of animals used.
Colonic inflammation was induced as described before. From day 0 to day 5, mice received DSS: 4% w/v and molecular weight 40,000 (PanReac AppliChem, Darmstadt, Germany) in drinking water. On days 6 and 7, the DSS solution was replaced with tap water. Control animals were given drinking water throughout the whole experiment. Animal body weight was monitored daily. Mice were sacrificed by cervical dislocation on day 7, and colonic damage was evaluated.
Treatment was administered intraperitoneally (i.p.) twice daily from day 3 to day 6 after colitis induction, 100 µL/mouse. Peptides were administered at the dose of 1 mg/kg bw. Control and DSS groups received vehicle alone (100 µL/mouse, i.p.).
On day 7 of the experiment, mice were euthanized. For total macroscopic damage score evaluation, the colon was removed immediately after cervical dislocation and weighed with fecal content. Next, the colon was opened longitudinally, and the feces were removed.
Total macroscopic damage score was calculated based on the stool consistency (0—normal, well-shaped fecal pellets; 3—diarrhea), colon epithelial damage (0–3), and colon length and weight scores, calculated as a loss of each parameter relative to the control group (0 points, ≤5% weight/length loss; 1 point, 5–14% weight/length loss; 2 points, 15–24% weight/length loss; 3 points, 25–35% weight/length loss; and 4 points, ≥35% weight/length loss). […] The presence (score = 1) or absence (score = 0) of fecal blood was also recorded. […]

[3] = Stability of peptides in human plasma; format: in vitro ADME; conditions: 37 °C, 200 µL peptide solution (1 mg/mL in PBS pH 7.42) + 50 µL human plasma, ethanol deproteinization, RP-HPLC peak area vs 0 h, at least triplicate; for Stability in human plasma relative to heterodimer of sialorphin and spinorphin, after 4 h: 4 h incubation; for Level of remaining peptide in human plasma relative to heterodimer of sialorphin and spinorphin, after 24 h: 24 h incubation
Procedure: Compounds VII and VIII were the strongest inhibitors of NEP in vitro and were thus included in stability assays. Peptides were incubated in the human plasma at 37 °C, and their degradation was analyzed by RP HPLC. The stability of peptides VII–VIII was compared to that of a heterodimer of sialorphin and spinorphin and not sialorphin alone. In previously described stability assays of sialorphin alone, the 48% TFA solution was used to precipitate proteins before HPLC analysis. In the case of the peptides VII and VIII, we had to use ethanol instead of the TFA solution. This change was required by the fact that in the latter solution, an emergence of a degradation product that was characterized by identical retention time on HPLC as that of peptides VII and VIII occurred. Consequently, a different reference was used (heterodimer of sialorphin and spinorphin instead of sialorphin).
Plasma-stability assays were performed by applying procedure described by Sobocińska et al.. Each peptide solution was prepared by dissolving 1 mg of a peptide in 1 mL of PBS buffer (pH 7.42). The samples containing the peptide (200 µL) and freshly […] plasma (50 µL) were incubated at 37 °C. The samples were analyzed after 0, 2, 4, and 24 h. At each time interval 40 μL of the mixture was taken and deproteinized by addition of a ethanol (120 µL). The aliquots were centrifuged at 14,500 rpm for 5 min. The supernatants were filtered over Millipore Millex-GV syringe filters (Merck Life Science, Poznan, Poland) and analyzed with RP-HPLC on a Phenomenex Gemini-NX C18 5 µm column (4.6 mm × 150 mm) using the solvent system of 0.1% TFA in water (A) and 0.1% TFA in acetonitrile (B) and linear gradients of 20–80% (B) over 20 min, at a flow rate of 1.5 mL/min. To assess the stability at each time interval, the area of the peptide peak from the chromatogram was calculated and expressed as the percentage of the area of the peak recorded just after mixing a peptide with plasma (0-hour). The assay was performed at least in triplicate for each peptide.

Structure (SMILES)	1000 × k, degradation rate of Met-enkephalin incubated with NEP in the presence of inhibitor [1]	t1/2, half-life of Met-enkephalin incubated with NEP in the presence of inhibitor [1]	Stability in human plasma relative to heterodimer of sialorphin and spinorphin, after 4 h [3]	Level of remaining peptide in human plasma relative to heterodimer of sialorphin and spinorphin, after 24 h [3]	Total macroscopic damage score ([2]; DSS 4% w/v in drinking water day 0-5, peptide 1 mg/kg i.p. twice daily day 3-6, evaluated day 7, mean ± SEM, n = 5–10, DSS-only 11.20 ± 0.60, control 0.55 ± 0.18)	Effect on microscopic damage score / colon architecture (in words) [2]	half-life at 0.0413 mM ([1]; isolated enzyme neprilysin, pH 7.4)
CCCCCCCCCCCCCCCC(=O)N[C@@H](CCCCN)C(=O)N[C@@H](CCCCN)C(=O)N[C@@H](CCC(N)=O)C(=O)N[C@@H](Cc1c[nH]cn1)C(=O)N[C@@H](CC(N)=O)C(=O)N1CCC[C@H]1C(=O)N[C@@H](CCCNC(=N)N)C(=O)O [VII] (HELM PEPTIDE1{[CCCCCCCCCCCCCCCC(=O)[*:2]].K.K.Q.H.N.P.R}$$$$V2.0)	3.46 ± 0.40 *** 1/min	199 ± 2 min	1.4 times	1.3 times	10.20 ± 0.99	significantly improved colon architecture	
CCCCCCCCCCCCCCCCCC(=O)N[C@@H](CCCCN)C(=O)N[C@@H](CCCCN)C(=O)N[C@@H](CCC(N)=O)C(=O)N[C@@H](Cc1c[nH]cn1)C(=O)N[C@@H](CC(N)=O)C(=O)N1CCC[C@H]1C(=O)N[C@@H](CCCNC(=N)N)C(=O)O [VIII] (HELM PEPTIDE1{[CCCCCCCCCCCCCCCCCC(=O)[*:2]].K.K.Q.H.N.P.R}$$$$V2.0)	0.89 ± 0.10 *** 1/min	724 ± 43 min	1.4 times	5.5 times		less pronounced	
CSCC[C@H](NC(=O)[C@H](Cc1ccccc1)NC(=O)CNC(=O)CNC(=O)[C@@H](N)Cc1ccc(O)cc1)C(=O)O [Met-Enkephalin, Met-enkephalin, reference compound]							27 ± 1 min

The next lines start with results.

1000 × k, degradation rate of Met-enkephalin incubated with NEP in the presence of inhibitor [1]	t1/2, half-life of Met-enkephalin incubated with NEP in the presence of inhibitor [1]	Stability in human plasma relative to heterodimer of sialorphin and spinorphin, after 4 h [3]	Level of remaining peptide in human plasma relative to heterodimer of sialorphin and spinorphin, after 24 h [3]	Structure (SMILES)	Total macroscopic damage score ([2]; DSS 4% w/v in drinking water day 0-5, peptide 1 mg/kg i.p. twice daily day 3-6, evaluated day 7, mean ± SEM, n = 5–10, DSS-only 11.20 ± 0.60, control 0.55 ± 0.18)	Effect on microscopic damage score / colon architecture (in words) [2]	half-life at 0.0413 mM ([1]; isolated enzyme neprilysin, pH 7.4)
20.06 ± 1.34 ** 1/min	35 ± 2 min			CCCCCCCCCCCCCC(=O)N[C@@H](CCCCN)C(=O)N[C@@H](CCCCN)C(=O)N[C@@H](CCC(N)=O)C(=O)N[C@@H](Cc1c[nH]cn1)C(=O)N[C@@H](CC(N)=O)C(=O)N1CCC[C@H]1C(=O)N[C@@H](CCCNC(=N)N)C(=O)O [VI] (HELM PEPTIDE1{[CCCCCCCCCCCCCC(=O)[*:2]].K.K.Q.H.N.P.R}$$$$V2.0)			
23.20 ± 0.89 min⁻¹	30 ± 1 min			CCCCCCCCCCCC(=O)N[C@@H](CCCCN)C(=O)N[C@@H](CCCCN)C(=O)N[C@@H](CCC(N)=O)C(=O)N[C@@H](Cc1c[nH]cn1)C(=O)N[C@@H](CC(N)=O)C(=O)N1CCC[C@H]1C(=O)N[C@@H](CCCNC(=N)N)C(=O)O [V] (HELM PEPTIDE1{[CCCCCCCCCCCC(=O)[*:2]].K.K.Q.H.N.P.R}$$$$V2.0)			
